One may read the logP as a log measure of how a compound divides between an organic and an aqueous phase. One may read the solubility as the concentration that dissolves in the medium under given conditions. Lower therefore signals little dissolved substance. As usually defined, the fraction unbound is free concentration divided by total concentration. In general, logD refers to lipophilicity at a set pH, counting ionised and neutral species. For orientation: half-life means the time needed for the level to fall by half in the phase considered. The IC50 is the concentration that inhibits the measured activity by half.

A short description of data set [1]: Lipophilicity, logP of the compound by LC/UV/MS analysis. In kind it is physicochemical. To be noted: octanol/water.
Data set [2] in a line: Aqueous solubility of compound in pH 7.4 phosphate buffer. It counts as physicochemical.
Data set [3] is described as follows: Metabolic stability in human liver microsomes assessed as intrinsic clearance at 1 uM measured upto 60 mins by LC-MS/MS analysis. It counts as ADME, Microsome. Conditions: 1 h. Background: Microsomes from liver hold many membrane-bound enzymes, among them those of drug oxidation.
The nature of data set [4]: Metabolic stability in human liver microsomes assessed as half life at 1 uM measured upto 60 mins by LC-MS/MS analysis. It counts as ADME, Microsome. Conditions: for t1/2: microsomes, 1 h, 1 µM; for half-life at 1 µM: liver microsomes.
The nature of data set [5]: Metabolic stability in mouse liver microsomes at 1 uM measured upto 60 mins by LC-MS/MS analysis. Conditions: 1 h. It counts as ADME, Microsome.
Data set [6] is described as follows: Metabolic stability in human liver microsomes assessed as compound remaining at 1 uM measured upto 60 mins in presence of NADPH for 15 mins by LC-MS/MS analysis. In kind it is ADME, Microsome. Conditions: for Stability: microsomes, 1 h, 1 µM; for remaining at 1 h, 1 µM: liver microsomes, read-out: Stability.
Data set [7] in a line: Metabolic stability in mouse liver microsomes assessed as compound remaining at 1 uM measured upto 60 mins in presence of NADPH for 15 mins by LC-MS/MS analysis. It counts as ADME, Microsome. To be noted: for Stability: microsomes, 1 h, 1 µM; for remaining at 1 h, 1 µM: liver microsomes, read-out: Stability.
A short description of data set [8]: Plasma protein binding in human assessed as free fraction at 1 mM by equilibrium dialysis assay. It counts as ADME, cell-free. Background: In equilibrium dialysis only unbound substance equilibrates across the membrane.
Data set [9] can be described thus: Lipophilicity, logD of compound at pH 7.4 by shake flask method. To be noted: buffer. In kind it is physicochemical.
Data set [10] can be described thus: Metabolic stability in mouse liver microsomes assessed as half life at 1 uM measured upto 60 mins by LC-MS/MS analysis. It counts as ADME, Microsome. To be noted: for half-life at 1 µM: liver microsomes; for t1/2: microsomes, 1 h, 1 µM.
Data set [11] is described as follows: Metabolic stability in mouse liver microsomes assessed as intrinsic clearance at 1 uM measured upto 60 mins by LC-MS/MS analysis. Conditions: 1 h. In kind it is ADME, Microsome.
Data set [12] deals with HepG2. The data set can be described thus: Cytotoxicity against human HepG2 cells assessed as inhibition of cell growth incubated for 3 days by trypan blue assay. Conditions: HepG2, 72 h. It counts as functional, cell-based.

≈ marks a conversion by molar mass, not a printed value.

On to `COc1ccccc1OCCCC1CCOCC1`, for which, in data set [1], the logP is 3.4. The compound also had a solubility in data set [2] of 244 µM (≈ 61.1 µg/mL). The CLint in data set [3] stood at 77 µL/min/mg. The t1/2 in data set [4] stood at 18.07 min. The figures for the Stability result in [5], in data set [6] and in data set [7] (BLD = below limit of detection) were “Unstable”, 50.46% and “Bld”, respectively. In addition, in data set [8], the fraction unbound came out at 0.106.

As for `c1ccc(COCCCOC2CCCCC2)cc1`, in data set [1], the logP was 6.2.

For `c1ccc(CCCN2CCCCC2)cc1`, the logP in data set [1] amounted to 5.1. Besides, in [9], the pH-dependent lipophilicity (logD) stood at 1.

Compound `CCCCCCC1CCc2ccccc2C1` (stereo not given) registered a logP in [1] of 7.9.

Turning to `c1ccc(COCCCCC2CCCCC2)cc1`, the logP in [1] came to 6.6.

`c1ccc(COCCCON2CCCCC2)cc1` came in with a logP in data set [1] of 4.8. Also, the logD in data set [9] was 3.

The compound `CCCCCCN1CCc2ccccc2C1` returned a logP in [1] of 5.3. In data set [9], this compound yielded a logD of 3.3.

`CCCCCON1CCc2ccccc2C1`: the logP in data set [1] is 5.9. Besides, the logD in [9] was 4.7.

With `c1ccc2c(c1)CCCN2OCCN1CCN(C2CCCCC2)CC1`, in data set [1], the logP came to 5. This compound returned a logD in data set [9] of 2.4. In data set [2], this compound showed a solubility above 300 µM. For the same compound, in data set [4], the t1/2 was 13.74 min. For the same compound, in data set [6], the Stability is reported as 48.07%. The remaining at 1 h, 1 µM in data set [7] was found to be 4.32%. The fraction unbound in [8] worked out at 0.341. The half-life at 1 µM in data set [10] worked out at 3.19 min.

For the compound `c1ccc2c(c1)CCCC2CCCN1CCN(C2CCCCC2)CC1` (stereo not given), the logP in [1] was 6.2. Moreover, the logD in data set [9] worked out at 3.9. For the same compound, the solubility in data set [2] is 288 µM (≈ 98.1 µg/mL). The CLint in data set [3] amounted to 275 µL/min/mg; in data set [11] it was 455 µL/min/mg. The values for the half-life at 1 µM in [4] and in data set [10] were 5.04 min and 3.05 min, respectively. Moreover, the results for the remaining at 1 h, 1 µM in data set [6] and in data set [7] were 13.6% and 3.7%, respectively. In addition, the fraction unbound in data set [8] worked out at 0.0519.

In data set [1], `CCCCCOC1CCc2ccccc2C1` (stereo not given) returned a logP of 6.6.

As to `c1ccc2c(c1)CCCN2CCCN1CCN(C2CCCCC2)CC1`, the logP in data set [1] turned out to be 5.3. The same compound registered a logD in [9] of 1.8. In addition, the solubility in data set [2] stood at 275 µM (≈ 93.9 µg/mL). The half-life at 1 µM in data set [4] worked out at 5.06 min; in [10] it was 4.07 min. The results for the remaining at 1 h, 1 µM in data set [6] and in data set [7] were 13.7% and 8.5%, respectively. In addition, the fraction unbound in [8] amounted to 0.153.

Regarding `c1ccc2c(c1)CCCC2OCCN1CCN(C2CCCCC2)CC1` (stereo not given), the logP in data set [1] worked out at 5. The logD in [9] stood at 2.7. The compound further displayed a solubility in [2] of 287 µM (≈ 98.3 µg/mL). For the same compound, in data set [4], the t1/2 came out at 5.67 min. Besides, in data set [6], the Stability turned out to be 17.01%. Also, the remaining at 1 h, 1 µM in [7] was 3.98%. Besides, in data set [8], the fraction unbound was 0.322. Further, the half-life at 1 µM in data set [10] stood at 3.12 min.

`COc1ccccc1OCCOC1CCOCC1` gave a logP in [1] of 2.1. The concentration in solution in [2] (solubility) was 275 µM (≈ 69.4 µg/mL). Moreover, the CLint in [3] worked out at 17 µL/min/mg; in data set [11], 196 µL/min/mg. For the same compound, the t1/2 came to 83.41 min in [4] and 7.06 min in [10]. The Stability in data set [6] is reported as 82.92%; in data set [7], 24.08%. For the same compound, the fraction unbound in data set [8] was 0.544.

In data set [1], `c1ccc(CCON2CCCCC2)cc1` yielded a logP of 4.8. In [9], this compound returned a logD of 3.2.

Consider `c1ccc(CCOC2CCCCC2)cc1`, for which the logP in [1] came to 6.2.

Take `O=C(CCCCCCC(=O)Nc1ccccc1)NO` [VORINOSTAT]: in data set [12], the IC50 was 3.2 ng/mL (≈ 0.0121 µM).

In turn, `c1ccc(COCCCCN2CCCCC2)cc1` returned a logP in [1] of 5.8. Further, the logD in [9] worked out at 0.9.

`c1ccc(CCCC2CCCCC2)cc1` had a logP in data set [1] of 6.6.

For the compound `COc1ccccc1OCCON1CCOCC1`, the logP in data set [1] was 2.1. In data set [9], this compound gave a logD of 1.3. In [2], this compound registered a solubility of 293 µM (≈ 74.2 µg/mL). In addition, the CLint in [3] worked out at 14 µL/min/mg; in [11], 129 µL/min/mg. The results for the t1/2 in data set [4] and in [10] were 98.54 min and 10.75 min, respectively. The Stability in data set [6] is reported as 91.54%; in [7] it was 36.43%. Besides, the fraction unbound in data set [8] worked out at 0.625.

In data set [1], `COc1ccccc1OCCCN1CCOCC1` registered a logP of 2.3. This compound also returned a logD in data set [9] of 1.3. The concentration in solution in data set [2] (solubility) was 273 µM (≈ 68.6 µg/mL). Moreover, the values for the CLint in data set [3] and in data set [11] were below 5 µL/min/mg and 315 µL/min/mg, respectively. The half-life at 1 µM was above 300 min in data set [4] and 4.4 min in [10]. Besides, the remaining at 1 h, 1 µM in data set [6] worked out at 91%; in data set [7], 10.2%. In addition, the fraction unbound in data set [8] came to 0.573.

The values are drawn from ChEMBL document CHEMBL5131521, “The N,N,O-Trisubstituted Hydroxylamine Isostere and Its Influence on Lipophilicity and Related Parameters” (ACS Med Chem Lett, 2022).
